How the values were obtained:
hSTING-CTD = hSTING-CTD (Homo sapiens (Human), UniProt Q86WV6); assay: Human STING protein FP competition concentration response assay; type: binding
Procedure: A validated STING ligand, such as c-di-GMP, which is labeled with a read-out signal (e.g., a fluorescence signal such as fluorescein), is mixed with STING-CTD (e.g., mouse STING-CTD or human STING-CTD) with or without the presence of a compound of the present application. Changes in the read-out signal are measured (e.g., by fluorescence anisotropy) to determine the binding of the compound to STING-CTD.
Fluorescein labeled c-di-GMP, a validated STING ligand, was mixed with recombinant hSTING-CTD in a homogenous assay format with or without the presence of a compound of the present application (titrated) in PBS in black 384-well plates (10 μL per well). The fluorescence anisotropy was determined on a PerkinElmer EnVisions multi-mode plate reader. The plate can be read immediately after mixing the reagents or after a few hours without change of signals.
• 1) hSTING (Supplier: HDB) • 2) 2′-Fluo-AHC-c-di GMP (BIOLOG #F009) • 3) 2′3′-cGAMP (BIOLOG #C161) • 4) DMXAA (InvivoGen #tlrl-dmx) • 5) DMSO (Sigma, #D5879-100 mL) • 6) 10×PBS(HDB #MCP-020) • 7) Assay plate, 384-well black plate, solid black bottom (Greiner #784076) • 8) Compound dilution intermediate plate, 384 LDV plate (Labcyte #LP-0200) • 9) Liquid handler, ECHO550 (Labcyte) • 10) Liquid handler, Bravo (Aglient) • 11) Reader, Envision (PerkinElmer) • 12) Centrifuge (Eppendorf) • 13) Multichannel Pipette (Raining) • 14) 10 ml Reservoir (Corning) • 15) 15 ml centrifuge tube (Corning) • 16) Adhesive Plate seals (BioRad) Compound Preparation • a) Containers of each compound were centrifuged at 1000 rpm for 5 min. • b) Compounds were dissolved in DMSO at 30 mM. • c) Compounds were sufficiently vortexed, and centrifuged at 1000 rpm for 1 min. • d) 16 uL of the compound solution was transferred into a LDV Compound Plate. • e) 2-fold serial dilutions of the compound solution were made with DMSO, and 14 concentrations were made in the 384-well LDV Compound Plate. • f) The LDV plate was spun at 1000 rpm for 60 sec and sealed with foil (stored at −20° C. if not used immediately). • g) 335 nL of each compound from the LDV Compound Plate was transferred to Assay Plate (ECHO550). Probe Preparation • a) 200 uM probe stock (2′-Fluo-AHC-c-diGMP) was diluted by ddH2O to 6 uM working concentration. • b) 10-12 uL 6 uM working solution of probe was transferred into the LDV plate. • c) 50 nL per well 6 uM working solution of probe was transferred from the LDV plate to each well of the empty Assay Plate (Greiner 784076) by ECHO550 Buffer mode. • d) Probe final concentration was 30 nM when assay system was 10 uL. • e) The Assay Plate was spun at 1000 rpm for 1 min. Compound Addition • a) After the LDV Compound Plate was prepared, 335 nL compound (ECHO550 DMSO mode) was transferred from the LDV Compound Plate into the Assay Plate (Greiner 784076) containing 50 nL probe in each well according to the Assay Plate layout. • b) DMSO final concentration was 3.35% when assay system was 10 uL. • c) The Assay Plate was spun at 1000 rpm for 1 min. Protein Addition • a) Aliquot of hSTING protein was thawed on ice, briefly to generate uniform solution. • b) 55 uM stock protein was diluted in 1×PBS assay buffer to generate 10 uM final solutions. • c) For test compound and ZPE wells, 10 μL per well of 10 uM protein solutions was added into the Assay Plate containing both the probe and test compounds or DMSO using multichannel pipette. • d) For HPE wells, 10 μL/well of 1×PBS assay buffer instead of protein was added into the Assay Plate containing both the probe and DMSO using multichannel pipette. • e) The Assay Plate was spun at 1000 rpm for Imin. • f) The Assay Plate was incubated at r.t. for 10-20 min.
The EnVision plate reader was used to record the FA value of each well immediately after mixing the reagents or after a few hours without change of signals.
The raw data and calculated data (Fluorescence anisotropy (FA)) was exported from the EnVision reader. […]

hSTING-R232 = hSTING-R232 (Homo sapiens (Human), UniProt Q86WV6, H232R); assay: STING differential scanning fluorimetry (DSF) assay, WT human STING; details: WT (R232) human STING aa140-379, net shift in melting temperature
Chain of hSTING-R232 (Q86WV6 140-379 H232R): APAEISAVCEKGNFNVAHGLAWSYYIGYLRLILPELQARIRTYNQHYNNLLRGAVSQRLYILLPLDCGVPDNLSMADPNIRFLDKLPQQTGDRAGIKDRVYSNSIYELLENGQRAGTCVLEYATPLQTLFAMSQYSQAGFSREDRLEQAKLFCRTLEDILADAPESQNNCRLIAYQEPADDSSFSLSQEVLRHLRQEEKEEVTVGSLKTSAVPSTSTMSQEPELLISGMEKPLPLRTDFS

mSTING-R232 = mSTING-R232 (Mus musculus, UniProt Q3TBT3); assay: STING differential scanning fluorimetry (DSF) assay, mouse STING; details: net shift in melting temperature
hSTING-WT = hSTING-WT (Homo sapiens (Human), UniProt Q86WV6, H232R); assay: Radiometric filtration binding competition assay, hSTING-WT
Chain of hSTING-WT (Q86WV6 140-379 H232R): as above
Procedure: (§1) A radiometric filtration binding competition assay was performed to quantify the binding affinity of compounds of the present application for the human or mouse STING protein, or associated HAQ human isoform. […] The resulting dose response was fit by non-linear regression to determine an IC50 value, from which a Ki value for each compound was extrapolated.
(§2) The resulting complexes were then filtered, dried, and scintillation fluid was added and the remaining radio signal was measured to determine the degree of compound ligand inhibition. This assay format was optimized for both the WT and HAQ isoforms of the human protein and the mouse orthologue protein.
(§3) Probe Concentration: Minimum concentration that achieved max assay window • g. Assay Format: Scintillation Proximity Bead or Filtration Binding Plate • h. […] Assay incubation times for successive incubation steps
(§4) WT-hSWAT: WT_FBA_HIS-SUMO-hSWAT IC50 (μM) (“WT”=Wild-type); HAQ-hSWAT: HAQ_FBA_HIS-SUMO-hSWAT IC50 (μM) (“HAQ”=human HAQ allele of STING protein); and WT-mSWAT: MOUSE_FBA_HIS-SUMO-mnSWAT IC50 (μM) which is the mouse isoform of STING protein.

mSTING = mSTING (Mus musculus, UniProt Q3TBT3); assay: Radiometric filtration binding competition assay, mSTING
Procedure: as §1, §2, §3, §4

STING protein = STING protein (Homo sapiens (Human), UniProt Q86WV6, H232R); assay: Cell based reporter assay of IRF activation (IRF-luciferase), THP1-dual-KI R232; details: read-out: THP1-dual-KI R232_IRF(Luciferase)_Activity Maximum measured (%)
Chain of STING protein (Q86WV6 whole entry H232R): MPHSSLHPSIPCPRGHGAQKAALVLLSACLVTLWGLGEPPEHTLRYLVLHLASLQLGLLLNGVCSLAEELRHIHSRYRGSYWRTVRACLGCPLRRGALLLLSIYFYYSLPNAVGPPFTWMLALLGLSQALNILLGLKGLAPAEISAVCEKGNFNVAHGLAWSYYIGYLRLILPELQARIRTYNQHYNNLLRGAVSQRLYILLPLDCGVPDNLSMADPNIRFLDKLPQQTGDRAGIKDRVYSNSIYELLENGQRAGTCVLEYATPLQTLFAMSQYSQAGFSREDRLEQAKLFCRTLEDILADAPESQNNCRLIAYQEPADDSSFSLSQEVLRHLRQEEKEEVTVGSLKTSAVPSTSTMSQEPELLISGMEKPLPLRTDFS
Excerpt: Briefly, THP-1 monocytes were transfected and selected for stable integration of 2 reporter constructs. Clones incorporating stably integrated vectors were further selected by antibiotic resistance to blastocidin and zeocin. The reporter constructs included: (1) firefly luciferase reporter gene under the control of an ISG54 promoter fused to five interferon (IFN)-stimulated response elements to measure IRF transcription factor binding activity and (2) secreted embryonic alkaline phosphatase reporter gene under transcription control of an IFN-beta minimal promoter fused to 5 copies of the NFkB consensus transcriptional response element and 3 copies of the c-Rel binding site.
The resulting THP-1 cell line was further modified to incorporate 3 amino acid point mutations (H71R A230G Q293R). This modification of the native TMEM173 gene in THP-1 cells (HAQ) was designed to produce a cell reporter that expressed the most common allelic variant in the human population (THP-1 R232, available from InvivoGen). Alternatively, the TMEM173 gene was knocked out to provide a congenic control to counter-screen for compound activation that was independent of the STING protein (THP-1 STING KO).
Once cell lines were established, reporter assay protocols were developed and optimized to screen small molecule compounds for agonist activity. Assay optimization for efficacy and Z′ value included titration of the following parameters:
• 1. Cell pre-activation with PMA • 2. Cell seeding density • 3. DMSO tolerance • 4. Media selection • 5. FBS concentration • 6. Incubation time • 7. Co-Assessment of cell viability by CTG assay • 8. Appropriate HPE and ZPE controls • 9. Dose Response Titration Final Assay SOP Conditions • 1. No pre-activation with PMA • 2. 5×10^4 cells/well in 96 well plate format • 3. <0.5% DMSO • 4. […] 10% FBS • 6. 14-18 hr incubation • 7. Cell Titer Glo reagent (Promega) following supernatant removal • 8.

Chain of hSTING-CTD (Q86WV6 135-379): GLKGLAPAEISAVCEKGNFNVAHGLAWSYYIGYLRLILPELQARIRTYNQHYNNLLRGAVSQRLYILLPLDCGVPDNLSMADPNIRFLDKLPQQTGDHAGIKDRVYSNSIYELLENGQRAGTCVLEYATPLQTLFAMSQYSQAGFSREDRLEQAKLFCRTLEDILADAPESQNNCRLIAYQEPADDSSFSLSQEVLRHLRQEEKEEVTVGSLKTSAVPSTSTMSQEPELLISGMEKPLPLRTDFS

IC50 (hSTING-CTD)	WT_DSF_hSWAT Tm Shift (° C.) (hSTING-R232)	MOUSE DSF_6xHIS-SUMO Tm Shift (° C.) (mSTING-R232)	IC50 (hSTING-WT)	IC50 (mSTING)	Emax (STING protein)	Structure (SMILES)
< 100 µM						CCNc1ccc2c(=O)c3ccc(Cl)c(Cl)c3n(CC(=O)O)c2c1 [Compound 123]
100 to 500 µM						Cc1ccc2c(c1C)c(=O)c1ccc(Cl)c(Cl)c1n2CC(=O)O [Compound 96]
> 1000 µM						O=C(O)Cn1c2ccccc2c(=O)c2ccc(F)c(Cl)c21 [Compound 83]
100 to 500 µM						COc1ccc2c(=O)c3ccc(Cl)c(Cl)c3n(CC(=O)O)c2c1 [Compound 95]
> 1000 µM						O=C(O)Cn1c2cc(F)ccc2c(=O)c2ccc(Cl)c(Cl)c21 [Compound 30]
< 100 µM						O=C(O)Cn1c2cc(NC3CCC3)ccc2c(=O)c2ccc(Cl)c(Cl)c21 [Compound 117]
> 1000 µM						CCc1cccc2c1c(=O)c1ccc(Cl)c(Cl)c1n2CC(=O)O [Compound 49]
100 to 500 µM						Cc1ccc2c(=O)c3cc(-c4ccc(C(C)C)cc4)ccc3n(CC(=O)O)c2c1 [Compound 77]
	D (“D” > 7° C.)	D (“D” > 15° C.)	< 20 µM	< 20 µM	< 5%	COc1c(Cl)ccc2c(=O)c3ccc(Nc4cccc(O)c4)cc3n(CC(=O)O)c12 [Compound 235]
	D (“D” > 7° C.)	D (“D” > 15° C.)	< 20 µM	< 20 µM	> 50%	COc1c(Cl)ccc2c(=O)c3ccc(Nc4ccccc4Cl)cc3n(CC(=O)O)c12 [Compound 267]
	D (“D” > 7° C.)	D (“D” > 15° C.)	< 20 µM	< 20 µM	> 50%	Cc1ccc2c(=O)c3ccc(Cl)c(-c4ccccc4)c3n(CC(=O)O)c2c1 [Compound 326]
	D (“D” > 7° C.)	D (“D” > 15° C.)	< 20 µM	< 20 µM	> 50%	COc1c(Cl)ccc2c(=O)c3ccc(Nc4ccc(OC(F)(F)F)cc4)cc3n(CC(=O)O)c12 [Compound 266]
	B (“B” = 0-2° C.)	C (“C” = 5-15° C.)	100 to 300 µM	< 20 µM	< 5%	O=C(O)Cn1c2cc(-c3ccc(Cl)cc3)ccc2c(=O)c2ccc(Cl)c(Cl)c21 [Compound 156]
	D (“D” > 7° C.)	D (“D” > 15° C.)	< 20 µM	< 20 µM	> 50%	COc1c(Cl)ccc2c(=O)c3ccc(-c4ccc(N)cc4)cc3n(CC(=O)O)c12 [Compound 274]

The next lines start with the compound.

Structure (SMILES)	IC50 (hSTING-CTD)	WT_DSF_hSWAT Tm Shift (° C.) (hSTING-R232)	MOUSE DSF_6xHIS-SUMO Tm Shift (° C.) (mSTING-R232)	IC50 (hSTING-WT)	IC50 (mSTING)	Emax (STING protein)
COc1ccccc1CCc1ccc2c(c1)c(=O)c1ccccc1n2CC(=O)O [Compound 42]	500 to 1000 µM					
Cc1ccc2c(=O)c3cc(CCC4CCCCC4)ccc3n(CC(=O)O)c2c1 [Compound 76]	100 to 500 µM					
O=C(O)Cn1c2ccccc2c(=O)c2cc(/C=C\c3ccccc3)ccc21 [Compound 80]	100 to 500 µM					
N#Cc1ccc2c(=O)c3ccccc3n(CC(=O)O)c2c1Cl [Compound 107]	< 100 µM					
CC1(C)CCC=C(c2ccc3c(c2)c(=O)c2ccccc2n3CC(=O)O)C1 [Compound 73]	100 to 500 µM					
O=C(O)Cn1c2ccccc2c(=O)c2c(Cl)c(Cl)ccc21 [Compound 48]	> 1000 µM					
O=C(O)Cn1c2ccccc2c(=O)c2ccc(Cl)c(OCCO)c21 [Compound 328]		B (“B” = 0-2° C.)	C (“C” = 5-15° C.)	> 300 µM	> 300 µM	< 5%
CN(C)c1c(Cl)ccc2c(=O)c3ccc(C(C)(C)C)cc3n(CC(=O)O)c12 [Compound 324]		D (“D” > 7° C.)	D (“D” > 15° C.)	< 20 µM	< 20 µM	> 50%
COc1c(Cl)ccc2c(=O)c3ccc(NC4CCCC4)cc3n(CC(=O)O)c12 [Compound 293]		D (“D” > 7° C.)	D (“D” > 15° C.)	< 20 µM	< 20 µM	> 50%
CN(C)c1c(Cl)ccc2c(=O)c3ccc(Nc4ccccc4)cc3n(CC(=O)O)c12 [Compound 332]		D (“D” > 7° C.)	D (“D” > 15° C.)	< 20 µM	< 20 µM	> 50%
COc1cccc2c(=O)c3ccc(Cl)c(OC)c3n(CC(=O)O)c12 [Compound 333]		B (“B” = 0-2° C.)	B (“B” = 0-5° C.)	> 300 µM	> 300 µM	5 to 25%
CC(C)Oc1c(Cl)ccc2c(=O)c3ccc(C(C)(C)C)cc3n(CC(=O)O)c12 [Compound 225]		D (“D” > 7° C.)	D (“D” > 15° C.)	< 20 µM	20 to 100 µM	> 50%
Cc1ccc2c(=O)c3ccc(Cl)c(OCC4CC4)c3n(CC(=O)O)c2c1 [Compound 325]		C (“C” = 2-7° C,)	C (“C” = 5-15° C.)	100 to 300 µM	100 to 300 µM	25 to 50%
COc1c(Cl)cc(O)c2c(=O)c3ccccc3n(CC(=O)O)c12 [Compound 314]		C (“C” = 2-7° C,)	C (“C” = 5-15° C.)	> 300 µM	100 to 300 µM	> 50%
CC(=O)COc1c(Cl)ccc2c(=O)c3ccccc3n(CC(=O)O)c12 [Compound 312]		B (“B” = 0-2° C.)	B (“B” = 0-5° C.)	> 300 µM	> 300 µM	< 5%
COc1c(Cl)ccc2c(=O)c3ccc(SC(C)C)cc3n(CC(=O)O)c12 [Compound 232]		D (“D” > 7° C.)	D (“D” > 15° C.)	100 to 300 µM	< 20 µM	> 50%
Cc1ccc2c(=O)c3ccc(Cl)c(N(C)C)c3n(CC(=O)O)c2c1 [Compound 308]		D (“D” > 7° C.)	D (“D” > 15° C.)	< 20 µM	< 20 µM	> 50%
CCSc1ccc2c(=O)c3ccc(Cl)c(OC)c3n(CC(=O)O)c2c1 [Compound 231]		D (“D” > 7° C.)	D (“D” > 15° C.)	20 to 100 µM	< 20 µM	> 50%
